Experiment [1] has as its system mouse dendritic cells (DC). Kind of experiment: IL-12 induction in in vitro mouse dendritic cell (DC) assay, IL-12 ELISA. Format: cell-based. Particulars: 50 μg of each compound; supernatants collected 48 hours after stimulation. The protocol:
Bone marrow contents of C57BU6 mice were obtained from the femurs, by flushing the inside of the bones with media (see below). Cells were then incubated in complete medium with 0.2 U/mI of recombinant GM-CSF and 200 U/ml of recombinant IL-4 (Both from Serotec, Oxford, UK), replenished daily. After 3-4 days, fresh media and cytokines were added to cells. Cells were harvested after 7-10 days of culture, washed three times and adjusted to desired cell numbers. When harvested, cells were more than 95% DCs based on the following: DCs lacked B and T cells markers had high expression of MHC class 2 and class 1 (Serotec), and had low expression of CD11a (Serotec) and CD14 (Serotec), and expressed CD11c (Serotec). […]
(§1) Plates (Maxisorp, Nunc, Denmark) were coated with 8 μg/ml anti-IL-12 (B @ D Pharmaceuticals) and incubated overnight at room temperature. […] Following the final washing step, TMB substrate was added, the reaction was stopped by the addition of H2SO4, and the absorbance values were read at 450 nm.
IL-10 and IL-12 inducing activities of compounds 1.9, 2.5, 3.5, 4,6, 5.3, 6.2, 7.10, 8.6, 9.2, and 10.3 were tested in an in vitro mouse dendritic cell (DC) assay (FIG. 2). […] Supernatants were collected 48 hours after stimulation, and IL-12 and IL-10 levels measured.
(In general: In an ELISA, binding on a coated surface is turned into a signal by an enzyme label.)

Experiment [2] concerns bovine dendritic cells (DC). The experiment is described as follows: IL-12 induction in in vitro bovine dendritic cell (DC) assay, IL-12 ELISA. Format: cell-based. The following applies: 50 μg of each compound; supernatants collected 48 hours after stimulation. The protocol:
Peripheral blood mononuclear cells (PBMCs) were isolated from heparinized blood of cattle by density-gradient centrifugation. Cells were adjusted to 10^7/ml in RPMI-1640 medium containing 10% heat-inactivated FCS, 10 mM HEPES, 5×10^−5 M 2-mercaptoethanol. Non-adherent cells were removed after 3 hours by washing with warm phosphate buffered saline (PBS). Adherent cells were then incubated in complete medium with 0.2 U/mI of recombinant bovine GM-CSF and 200 U/ml of recombinant bovine IL-4 (Both from Serotec, Oxford, UK), replenished daily. After 3-4 days, fresh media and cytokines were added to cells. Cells were harvested after 7-10 days of culture, washed three times and adjusted to desired cell numbers. […]
as §1
Th1 inducing activities of compounds 1.9 and 2.5 were tested in an in vitro bovine dendritic cell (DC) assay (FIG. 1). […] Supernatants were collected 48 hours after stimulation, and IL-12 levels measured.

For `CCCCCCCCCCCCCCCCOC[C@H](COP(=O)(O)O[C@@H]1C(O[C@H]2OC(CO)[C@@H](O)[C@H](O)C2O)C(O)[C@@H](O)[C@H](O)C1O[C@H]1OC(CO)[C@@H](O)C(O)[C@H]1O)OC(=O)CCCCCCCCCCCCCCC` (stereo partly drawn) [Compound 4.6, 2,6-(Di-O-α-D-mannopyranosyl)-1-O-(2-hexadecanoyl-1-O-hexadecyl-sn-glycero-3-phosphoryl)-D-myo-inositol], the “Induction of IL-12 on mouse dendritic cells” value in experiment [1] is “the most potent inducing more IL-12 than the positive controls MPL and PAMCSK”.

For `CCCCCCCCCCCCCCCCO[C@H](COC(=O)CCCCCCCCCCCCCCC)COP(=O)(O)O[C@@H]1C(O[C@H]2OC(CO)[C@@H](O)[C@H](O)C2O)C(O)[C@@H](O)[C@H](O)C1O[C@H]1OC(CO)[C@@H](O)C(O)[C@H]1O` (stereo partly drawn) [Compound 1.9, 2,6-(Di-O-α-D-mannopyranosyl)-1-O-(1-O-hexadecanoyl-2-O-hexadecyl-sn-glycero-3-phosphoryl)-D-myo-inositol], in experiment [1], the “Induction of IL-12 on mouse dendritic cells” value was “the most potent inducing more IL-12 than the positive controls MPL and PAMCSK”. Moreover, the “Induction of IL-12 on bovine dendritic cells” value in experiment [2] is reported as “very high levels of IL-12”.

For the origin of these results see patent US20100297156A1, “ANALOGUES OF PHOSPHATIDYLINOSITOL MANNOSIDES” (INDUSTRIAL RESEARCH LIMITED, priority 2006, published 2010).
